Patent publication US20120100990A1, “4 -AMINOPICOLINATES AND THEIR USE AS HERBICIDES” (SYNGENTA CROP PROTECTION LLC, priority 2009, published 2012)

Legend:
Type in all cases: in vivo
[1] = test system: Echinochloa crus-galli (ECHCG); test: Post-emergence biological efficacy, glasshouse pot test; conditions: 312 h, 1,000 g/ha, evaluated after 13 days, 100=total damage, 0=no damage, read-out: Percentage damage caused to weed species, post-emergence, ECHCG
Procedure: (§1) Seeds of Alopecurus myosuroides (ALOMY), Setaria faberi (SETFA), Echinochloa crus-galli (ECHCG), Solanum nigrum (SOLNI), Amaranthus retroflexus (AMARE) and Ipomea hederaceae (IPOHE) were sown in standard soil in pots. After cultivation for 8 days under controlled conditions in a glasshouse (at 24/16° C., day/night; 14 hours light; 65% humidity), the plants were sprayed with an aqueous spray solution derived from the formulation of the technical active ingredient in acetone/water (50:50) solution containing 0.5% Tween 20 (polyoxyethylene sorbitan monolaurate, CAS RN 9005-64-5) to give a final dose of 1000 or 250 g/ha of test compound. The test plants were then grown on under controlled conditions in a glasshouse (at 24/16° C., day/night; 14 hours light; 65% humidity) and watered twice daily. After 13 days the test was evaluated (100=total damage to plant; 0=no damage to plant).

[2] = test system: Solanum nigrum (SOLNI); test: as above; conditions: 312 h, 1,000 g/ha, evaluated after 13 days, 100=total damage, 0=no damage, read-out: Percentage damage caused to weed species, post-emergence, SOLNI
Procedure: as §1

[3] = test system: Alopecurus myosuroides (ALOMY); test: as above; conditions: 312 h, 1,000 g/ha, evaluated after 13 days, 100=total damage, 0=no damage, read-out: Percentage damage caused to weed species, post-emergence, ALOMY
Procedure: as §1

[4] = test system: Ipomea hederaceae (IPOHE); test: as above; conditions: Ipomoea hederacea, 312 h, 1,000 g/ha, evaluated after 13 days, 100=total damage, 0=no damage, read-out: Percentage damage caused to weed species, post-emergence, IPOHE
Procedure: as §1

[5] = test system: Setaria faberi (SETFA); test: as above; conditions: 312 h, 1,000 g/ha, evaluated after 13 days, 100=total damage, 0=no damage, read-out: Percentage damage caused to weed species, post-emergence, SETFA
Procedure: as §1

[6] = test system: Amaranthus retroflexus (AMARE); test: as above; conditions: 312 h, 1,000 g/ha, evaluated after 13 days, 100=total damage, 0=no damage, read-out: Percentage damage caused to weed species, post-emergence, AMARE
Procedure: as §1

[7] = test system: Echinochloa crus-galli (ECHCG); test: Pre-emergence biological efficacy, glasshouse pot test; conditions: 312 h, 1,000 g/ha, evaluated after 13 days, 100=total damage, 0=no damage, read-out: Percentage damage caused to weed species, pre-emergence, ECHCG
Procedure: (§2) Seeds of Alopecurus myosuroides (ALOMY), Setaria faberi (SETFA), Echinochloa crus-galli (ECHCG), Solanum nigrum (SOLNI), Amaranthus retroflexus (AMARE) and Ipomea hederaceae (IPOHE) were sown in standard soil in pots. After cultivation for one day under controlled conditions in a glasshouse (at 24/16° C., day/night; 14 hours light; 65% humidity), the plants were sprayed with an aqueous spray solution derived from the formulation of the technical active ingredient in acetone/water (50:50) solution containing 0.5% Tween 20 (polyoxyethylene sorbitan monolaurate, CAS RN 9005-64-5) to give a final dose of 1000 or 250 g/ha of test compound. The test plants were then grown under controlled conditions in the glasshouse (at 24/16° C., day/night; 14 hours light; 65% humidity) and watered twice daily. After 13 days the test was evaluated (100=total damage to plant; 0=no damage to plant).

[8] = test system: Solanum nigrum (SOLNI); test: as above; conditions: 312 h, 1,000 g/ha, evaluated after 13 days, 100=total damage, 0=no damage, read-out: Percentage damage caused to weed species, pre-emergence, SOLNI
Procedure: as §2

[9] = test system: Alopecurus myosuroides (ALOMY); test: as above; conditions: 312 h, 1,000 g/ha, evaluated after 13 days, 100=total damage, 0=no damage, read-out: Percentage damage caused to weed species, pre-emergence, ALOMY
Procedure: as §2

[10] = test system: Ipomea hederaceae (IPOHE); test: as above; conditions: Ipomoea hederacea, 312 h, 1,000 g/ha, evaluated after 13 days, 100=total damage, 0=no damage, read-out: Percentage damage caused to weed species, pre-emergence, IPOHE
Procedure: as §2

[11] = test system: Setaria faberi (SETFA); test: as above; conditions: 312 h, 1,000 g/ha, evaluated after 13 days, 100=total damage, 0=no damage, read-out: Percentage damage caused to weed species, pre-emergence, SETFA
Procedure: as §2

[12] = test system: Amaranthus retroflexus (AMARE); test: as above; conditions: 312 h, 1,000 g/ha, evaluated after 13 days, 100=total damage, 0=no damage, read-out: Percentage damage caused to weed species, pre-emergence, AMARE
Procedure: as §2

Row | Compound | pest or weed control at 1000 g/ha [1] | pest or weed control at 1000 g/ha [2] | pest or weed control at 1000 g/ha [3] | pest or weed control at 1000 g/ha [4] | pest or weed control at 1000 g/ha [5] | pest or weed control at 1000 g/ha [6] | pest or weed control at 1000 g/ha [7] | pest or weed control at 1000 g/ha [8] | pest or weed control at 1000 g/ha [9] | pest or weed control at 1000 g/ha [10] | pest or weed control at 1000 g/ha [11] | pest or weed control at 1000 g/ha [12]
1 | COC(=O)c1nc(Cl)cc(NCC2CC2)c1Cl [Compound 1-2, 4-Cyclopropylmethyl-amino-3,6-dichloro-pyridine-2-carboxylic acid methyl ester] | 70% | 90% | 90% | 80% | 90% | 100% | 90% | 100% | 80% | 100% | 90% | 100%
2 | C=Cc1c(NCC2CC2)cc(Cl)nc1C(=O)OC [Compound 1-12, 6-chloro-4-cyclopropylmethylamino-3-ethenyl-pyridine-2-carboxylic acid methyl ester] | 80% | 90% | 70% | 70% | 90% | 100% | 90% | 100% | 80% | 90% | 90% | 100%
3 | COC(=O)c1nc(Cl)cc(NCc2ccccc2)c1Cl [Compound 2-2, 3,6-Dichloro-4-phenylmethyl-amino-pyridine-2-carboxylic acid methyl ester] | 60% | 100% | 50% | 70% | 80% | 100% | 30% | 100% | 60% | 90% | 80% | 100%
4 | C=Cc1c(NCc2ccccc2)cc(Cl)nc1C(=O)OC [Compound 2-12, 6-Chloro-3-ethenyl-4-phenylmethyl-amino-pyridine-2-carboxylic acid methyl ester] | 50% | 100% | 60% | 70% | 80% | 100% | 30% | 100% | 80% | 80% | 80% | 100%
5 | C=Cc1c(NCc2ccccc2Cl)cc(Cl)nc1C(=O)OC [Compound 3-12, 6-Chloro-4-[(2-chlorophenyl-methyl)-amino]-3-ethenyl-pyridine-2-carboxylic acid methyl ester] | 20% | 90% | 0% | 40% | 10% | 100% | 0% | 90% | 20% | 50% | 10% | 100%
6 | COC(=O)c1nc(Cl)cc(NCc2ccc(Cl)cc2)c1Cl [Compound 5-2, 4-[(4-Chlorophenyl-methyl)-amino]-3,6-dichloro-pyridine-2-carboxylic acid methyl ester] | 50% | 100% | 50% | 70% | 70% | 100% | 10% | 100% | 20% | 90% | 50% | 100%
7 | COC(=O)c1nc(Cl)cc(NCc2ccccc2F)c1Cl [Compound 6-2, 3,6-Dichloro-4-[(2-fluorophenylmethyl)-amino]-pyridine-2-carboxylic acid methyl ester] | 40% | 100% | 60% | 70% | 90% | 100% | 60% | 100% | 70% | 90% | 80% | 100%
8 | C=Cc1c(NCc2ccccc2F)cc(Cl)nc1C(=O)OC [Compound 6-12, 6-Chloro-3-ethenyl-4-[(2-fluorophenyl-methyl)-amino]-pyridine-2-carboxylic acid methyl ester] | 20% | 90% | 20% | 70% | 80% | 100% | 30% | 100% | 40% | 60% | 40% | 100%
9 | COC(=O)c1nc(Cl)cc(NCc2cccc(F)c2)c1Cl [Compound 7-2, 3,6-Dichloro-4-[(3-fluorophenylmethyl)-amino]-pyridine-2-carboxylic acid methyl ester] | 50% | 100% | 50% | 80% | 90% | 100% | 50% | 100% | 50% | 100% | 80% | 100%
10 | C=Cc1c(NCc2c(Cl)cccc2Cl)cc(Cl)nc1C(=O)OC [Compound 21-12, 6-Chloro-4-[(2,6-dichlorophenyl-methyl)-amino]-3-ethenyl-pyridine-2-carboxylic acid methyl ester] | 10% | 80% | 20% | 30% | 0% | 100% | 0% | – | 0% | 30% | 0% | 100%
